Results published in patent US20030059511A1, “Sweetener compositions and uses thereof” (AJINOMOTO CO., INC., priority 1999, published 2003).

Tests used:
[1] = Equivalent concentration of bitter taste (Example 30), Quinine sulfate; type: in vivo, human; conditions: derivative 4 2.2 ppm; Quinine sulfate 39 ppm; no addition 0.084
Experimental: (§1) With respect to the solution produced by adding derivative 1 (the product of the present invention), or adding nothing (no addition; the reference product) in the concentration shown in the following table 4 to the amino acid solution (2% solution of arginine by weight), the sensory evaluation was performed (using 10 panelists), and the equivalent concentration of bitter taste was determined. The results were shown in the table 4, wherein the equivalent concentration of bitter taste was shown in the concentration of aqueous solution of anhydrous caffeine which is a substance of bitter taste.
(§2) With respect to the solution produced by adding derivative 4 (2.2 ppm) to each of the substances of Quinine sulfate (39 ppm), anhydrous caffeine (2000 ppm), ferrous citrate (50 ppm), calcium lactate (1500 ppm), and thiamine hydrochloride (5000 ppm) (the product of the present invention), or adding nothing thereto (no addition; the reference product) the reference product (no addition), the sensory evaluation was performed (using 10 panelists), and the equivalent concentration of bitter taste was determined in the same way as that described in Example 28, and shown in table 6.

[2] = Equivalent concentration of bitter taste (Example 30), thiamine hydrochloride; type: in vivo, human; conditions: derivative 4 2.2 ppm; thiamine hydrochloride 5000 ppm; no addition 0.131
Experimental: as §1, §2

COC(=O)[C@H](Cc1ccccc1)NC(=O)[C@H](CC(=O)O)NCCC(C)(C)c1ccc(O)c(C)c1 [Derivative 4, N-[N-[3-(3-methyl-4-hydroxyphenyl)-3-methylbutyl]-L-α-aspartyl]-L-phenylalanine 1-methyl ester]
Equivalent concentration of bitter taste (Amount of anhydrous caffeine g/100 g), Quinine sulfate [1]: 0.025 g/100 g | Equivalent concentration of bitter taste (Amount of anhydrous caffeine g/100 g), Tiamine hydrochloride [2]: 0.093 g/100 g
